These results are taken from patent US20240109925A1, “Enhanced Anti-Proliferative and Antitumor Immune Effects of Mitochondria-Targeted Hydroxyurea” (The Medical College of Wisconsin, Inc., priority 2021, published 2024).

Each structure is given as a SMILES string. “Also recorded” adds a separate entry of the source. Where two headings read alike, the source gives them in different places.

Format in all cases: cell-based
Assay [1] concerns HCT116 human colon cancer cells. Put plainly: Cell proliferation (cell confluence), IncuCyte Live-Cell Analysis system. Conditions: for IC50: Homo sapiens, HCT-116, at ~90% confluence of control; for IC50 / inhibition of proliferation of HCT116 cells: HCT116; for Cell Confluence (%): when control cells reached ~90% confluence, n = 4. The source says:
FIG. 1. Effects of HU and Mito-HUs on proliferation of HCT116 human colon cancer cells (A) Effects of HU and Mito-HUs on the proliferation of HCT116 cells were monitored in the IncuCyte Live-Cell Analysis system. The IncuCyte Analyzer provides real-time updates on cell confluence, based on segmentation of high definition-phase contrast images. Representative cell images were shown as segmentation mask illustrated in brown when control cells reached 90% confluence (vertical solid black line). (B) The IC50 values were determined at the point at which control cells reached ˜90% confluence (vertical solid black line). Relative cell confluence (control is taken as 100%) is plotted against concentration. Dashed lines represent the fitting curves used to determine the IC50 values as indicated. Data shown are the means & SD.
(§1) The following cell lines were obtained from the American Type Culture Collection (Manassas, VA), where they were regularly authenticated: HCT116 (ATCC Cat #CRL-247, human colon cancer cells) and MiaPaCa-2 (ATCC Cat #CRL-1420, human pancreatic cancer cells). All cells were cultured in a humidified incubator at 37° C. and 5% carbon dioxide. HCT116 cells were maintained in RPMI 1640 medium (Thermo Fisher Scientific, Cat #11875), supplemented with 10% fetal bovine serum. MiaPaCa-2 cells were maintained in Dulbecco's Modified Eagle Medium (Thermo Fisher Scientific, Waltham, MA; Cat #11965) supplemented with 10% fetal bovine serum. All cells were stored in liquid nitrogen and used within 20 passages after thawing.
(§2) The IncuCyte Live-Cell Analysis system (Essen Bioscience Inc., Ann Arbor, MI) was used to monitor cell proliferation (Cheng et al., 2013, 2016; Boyle et al., 2018). As shown in previous publications (Cheng et al., 2013, 2016), this imaging system is probe-free and noninvasive, and enables continuous monitoring of cell confluence over several days. The increase in the percentage of cell confluence was used as a surrogate marker of cell proliferation. In a 96-well plate, cells were plated at 1,000 cells per well in triplicates and left to adhere overnight. Cells were then treated with HU and Mito-HUs, and the cell confluency was recorded over several days in the IncuCyte Live-Cell Analysis system.

Assay [2] addresses T1, mitochondrial complex III (Homo sapiens, UniProt P00156+P47985).
T1 construct: other: mean ± SD; HCT116, 24 hr treatment; Complex III activity (OCR, % of control); other: 0.1 μM, 24 hr, HCT116; n = 4; other: 0.5 μM, 24 hr, HCT116; other: 0.75 μM, 24 hr, HCT116; other: 1 μM, 24 hr, HCT116; Compl
The assay is described as follows: Complex III-dependent oxygen consumption (OCR), Seahorse XF-96, HCT116 cells. Conditions: HCT116, 24 hr. The method, then: (§3) FIG. 2. Effects of HU and Mito-HUs on the oxygen consumption by mitochondrial complexes I and III (A) Dose-dependent effects of HU, Mito10-HU, Mito12-HU, Mito14-HU, Mito16-HU, and Mito20-HU on complex I- and complex III-dependent oxygen consumption were measured in HCT116 cells. HCT116 cells were treated with HU or Mito-HUs as indicated for 24 hr. Mitochondrial complex I activity (left) and complex III activity (right) were monitored by a Seahorse XF-96 analyzer. Either rotenone (complex I inhibitor) or antimycin A (complex III inhibitor) was acutely added and OCR assayed immediately. (B) The mitochondrial complex I (left) and III (right) dependent oxygen consumption (calculated as rotenone or antimycin A inhibitable OCR) are plotted against concentration of HU and Mito-HUs. Dashed lines represent the fitting curves used for determination of the IC50 values. Data shown are the means G SD.
(§4) Mitochondrial oxygen consumption was measured using the Seahorse XF-96 Extracellular Flux Analyzer (Agilent, North Billerica, MA) (Cheng et al., 2013, 2016; Boyle et al., 2018; Weinberg and Chandel, 2015). After cells were treated with HU or Mito-HUs for 24 hr, the OCR-based assessment of mitochondrial complex activities was carried out on acutely permeabilized cells in the presence of different mitochondrial substrates, i.e., pyruvate/malate for complex I and duroquinol for complex III (Cheng et al., 2016, 2019; Salabei et al., 2014; Wheaton et al., 2014). Rotenone, malonate, and antimycin A (Sigma-Aldrich, St. Louis, MO) were used as specific inhibitors of mitochondrial complexes I, II, and III, respectively. Briefly, cells that were intact after treatments were immediately permeabilized using the Seahorse XF Plasma Membrane Permeabilizer (Agilent). The mitochondrial complex I-induced OCR was assayed in mannitol and sucrose buffer (Salabei et al., 2014) containing 10 mM pyruvate and 1.5 mM malate (substrates for complex I) and 10 mM malonate (which inhibits complex II activities). The mitochondrial complex III-driven OCR was assayed in a mannitol and sucrose buffer containing 0.5 mM duroquinol (substrate for complex III) as well as […] and 10 mM malonate (which inhibit both complex I and II activities). The IC50 values were determined as previously reported (Cheng et al., 2019).

For assay [3], the target named is mitochondrial complex I (Homo sapiens, UniProt O75251+O75306+P03886). The assay is described as follows: Complex I-dependent oxygen consumption (OCR), Seahorse XF-96, HCT116 cells. The settings on record: HCT116, 24 hr. How it is done: as §3, §4
Assay [4] deals with HCT116 human colon cancer cells. Put plainly: Cell proliferation (cell confluence), IncuCyte Live-Cell Analysis system.
Assay [5] relates to MiaPaCa-2 human pancreatic cancer cells. The assay is described as follows: Cell proliferation, IncuCyte Live-Cell Analysis system.
Text: FIG. 7. Effects of HU and Mito10-HU on proliferation of MiaPaCa-2 human pancreatic cancer cells; MiaPaCa-2 cells treated with HU or Mito10-HU were monitored in the IncuCyte Live-Cell Analysis system. Cell proliferation was monitored in real-time with the continuous presence of indicated treatments until the end of each experiment. Data shown are the means±SD.
as §1, §2

The mark [6] stands for this setting: read-out: IC50 proliferation of HCT116 cells.

For `Cc1ccc([P+](CCCCCCCCCCONC(N)=O)(c2ccc(C)cc2)c2ccc(C)cc2)cc1.O=C([O-])C(F)(F)F` [Mito10-HUtriMe, 10-[(carbamoylamino)oxy]-decyl-tris-p-tolylphosphonium trifluoroacetate], the IC50 in assay [1] (setting [6]) is 3.7 µM. The “effect on complex III-induced oxygen consumption” value in assay [2] is reported as “more potently than Mito10-HU”. Also, in assay [3], the “effect on complex I-induced oxygen consumption” value is given as “more potently than Mito10-HU”.
Turning to `CCOC(=O)Oc1c(OC)cc(C(=O)O[C@@H]2C[C@@H]3CN4CCc5c([nH]c6cc(OC)ccc56)[C@H]4C[C@@H]3[C@H](C(=O)OC)[C@H]2OC)cc1OC` [syrosingopine, reference compound], the “effect on cell proliferation, each alone (syrosingopine experiment)” value in assay [4] (Mito10-HU (5 μM) or syrosingopine (7.5 μM) independently, HCT116) was “minimally affected cell proliferation”.
`Cc1[nH]nc(C(F)(F)F)c1Cc1sc2c(c1C(=O)N1C[C@](C)(O)CO1)c(=O)n(C)c(=O)n2C(C)C` [AZD-3965, reference compound]: in assay [4] (Mito10-HU (5 μM) or AZD-3965 (100 μM) independently, HCT-116), the “antiproliferative effect, each alone (AZD-3965 experiment)” value is “negligible antiproliferative effects”.
Take `NC(=O)NOCCCC[P+](c1ccccc1)(c1ccccc1)c1ccccc1.O=C([O-])C(F)(F)F` [Mito4-HU, 4-[(carbamoylamino)oxy]-butyltriphenylphosphonium trifluoroacetate]: the “Cell Confluence (%)” value in assay [1] (100 μM) stood at 92.40%; in assay [1] (200 μM), 90.77%; in assay [1] (400 μM), 80.77%; in assay [1] (600 μM), 47.24%. In assay [1] (trifluoroacetate), the “inhibition of proliferation of HCT116 cells” value is reported as “dose-dependently inhibited proliferation; also recorded: lower than that of HU”. Besides, the IC50 in assay [1] (setting [6]) was more than 600 µM; in assay [1] (mean ± SD, read-out: IC50 Cell Proliferation (FIG. 1)), more than 600 µM. The “inhibition of proliferation of MiaPaCa-2 cells” value in assay [5] is given as “did not inhibit the proliferation”.
For the compound `O=C(NO)NC(=O)NCCCCCCCCCC[P+](c1ccccc1)(c1ccccc1)c1ccccc1.O=C([O-])C(F)(F)F` [Mito10-HUNHTPP^+, 10-[(hydroxycarbamoyl)carbamoylamino]-decyltriphenylphosphonium trifluoroacetate], the “inhibition of proliferation of HCT116 cells” value in assay [1] is recorded as “inhibited HCT116 cell proliferation”.
Consider `CCCCCCCCCCONC(N)=O` [Decyl-HU, decyloxyurea, reference compound], for which, in assay [1] (setting [6]), the IC50 was more than 600 µM.
